Test results: PubChem BioAssay (NCI)
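Tested at 5 concentrations; 48 h exposure; 96-well plates; endpoints linearly interpolated, else capped at highest concentration. The concentration for 50% growth inhibition is given as GI50. TGI: total growth inhibition.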

Columns and labels:
Test in all cases: inhibition of tumour cell growth, NCI panel, 48 h; in the data active = GI50 below about 0.43 µM; inactive = the rest
[1] = system: 786-0 renal
[2] = system: A498 renal
[3] = system: A549 NSCLC
[4] = system: ACHN renal
[5] = system: BT-549 breast
[6] = system: CAKI-1 renal
[7] = system: COLO 205 colon
[8] = system: DU-145 prostate
[9] = system: EKVX NSCLC
[10] = system: HCC-2998 colon
[11] = system: HCT-116 colon
[12] = system: HCT-15 colon
[13] = system: HL-60(TB) leukemia
[14] = system: HOP-62 NSCLC
[15] = system: HOP-92 NSCLC
[16] = system: HS 578T breast
[17] = system: HT29 colon
[18] = system: IGROV1 ovarian
[19] = system: K-562 leukemia
[20] = system: KM12 colon
[21] = system: LOX IMVI melanoma
[22] = system: M14 melanoma
[23] = system: MALME-3M melanoma
[24] = system: MCF7 breast
[25] = system: MDA-MB-231 breast
[26] = system: MDA-MB-435
[27] = system: MOLT-4 leukemia
[28] = system: NCI-H226 lung

Cc1nc(-c2cc3ccccc3oc2=O)ccc1C(=O)/C=C/c1ccccn1
inactive: GI50 [1] > 100 µM | GI50 [2] > 100 µM | GI50 [3] > 100 µM | GI50 [4] > 100 µM | GI50 [5] > 100 µM | GI50 [6] > 100 µM | GI50 [7] > 100 µM | GI50 [8] > 100 µM | GI50 [9] > 100 µM | GI50 [10] > 100 µM | GI50 [11] 6.34 µM | GI50 [12] > 100 µM | GI50 [13] > 100 µM | GI50 [14] > 100 µM | GI50 [15] 7.25 µM | GI50 [16] > 100 µM | GI50 [17] > 100 µM | GI50 [18] > 100 µM | GI50 [19] 6.47 µM | GI50 [20] > 100 µM | GI50 [21] 3.2 µM | GI50 [22] > 100 µM | GI50 [23] > 100 µM | GI50 [24] 3.72 µM | GI50 [25] > 100 µM | GI50 [26] > 100 µM | GI50 [27] > 100 µM | GI50 [28] > 100 µM
> 100 µM: TGI [1] | TGI [2] | TGI [3] | TGI [4] | TGI [5] | TGI [6] | TGI [7] | TGI [8] | TGI [9] | TGI [10] | TGI [11] | TGI [12] | TGI [13] | TGI [14] | TGI [15] | TGI [16] | TGI [17] | TGI [18] | TGI [19] | TGI [20] | TGI [21] | TGI [22] | TGI [23] | TGI [24] | TGI [25] | TGI [26] | TGI [27] | TGI [28]
